Results as given in PMC8100071, “Lipid binding by the N-terminal motif mediates plasma membrane localization of Bordetella effector protein BteA” (The Journal of Biological Chemistry, 2021).
Like-named read-outs stand apart in the source and are kept apart here.

Target: T1, LRT (GST-tagged N-terminal LRT domain of BteA) (Bordetella pertussis, UniProt Q7VSD3)
T1 construct: gene BP0500; N-terminal lipid raft targeting (membrane localization) domain, aa 1-130 of 656; N-terminal GST tag (pGEX-6P1) kept; E. coli Rosetta 2
Assay: SPR steady state, immobilized liposomes
Format: binding

T1 sequence (Q7VSD3 entry or part of it): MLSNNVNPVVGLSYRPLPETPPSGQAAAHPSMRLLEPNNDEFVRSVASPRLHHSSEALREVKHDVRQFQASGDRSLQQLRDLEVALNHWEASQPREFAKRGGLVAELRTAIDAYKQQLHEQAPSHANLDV

`CCCCCCCC/C=C\CCCCCCCC(=O)O[C@H](COC(=O)CCCCCCCCCCCCCCC)COP(=O)(O)O` [PA] showed a Kd (read-out: KD (apparent), PA/PC 5:95 (mol) liposomes, 100 nm, 50 mM Tris-HCl pH 7.4, 150 mM NaCl, 0.005% Tween-20, 25 °C, Kd in terms of protein concentration) of 492 ± 86 nM.

For `CCCCCCCC/C=C\CCCCCCCC(=O)OC[C@H](COP(=O)(O)O[C@@H]1[C@H](O)[C@H](O)[C@@H](OP(=O)(O)O)[C@H](OP(=O)(O)O)[C@H]1O)OC(=O)CCCCCCC/C=C\CCCCCCCC` [PIP2], the Kd was 446 ± 65 nM.

Compound `CCCCCCCC/C=C\CCCCCCCC(=O)O[C@H](COC(=O)CCCCCCCCCCCCCCC)COP(=O)(O)OC[C@H](N)C(=O)O` [PS] has a Kd (read-out: KD (apparent), PS/PC 20:80 (mol) liposomes, 100 nm, 50 mM Tris-HCl pH 7.4, 150 mM NaCl, 0.005% Tween-20, 25 °C, Kd in terms of protein concentration, unit nM shared in the sentence, abstract gives ∼1.2 μM) of 1230 ± 245 nM.
